Experiment [1] deals with Human Axl (Homo sapiens (Human), UniProt P30530, Q764R). The experiment is described as follows: Human AXL kinase assay (33P radiometric, KinaseProfiler). The experiment is classed as biochemical. To be noted: 10 μM ATP. As for the experimental part:
(§1) Kinase activity and compound inhibition were investigated using the ^33P-Phosphoryl transfer radiometric kinase assay, performed using the KinaseProfiler™ service of Eurofins Pharma Discovery Services UK Limited. Dose-response experiments were performed using nine compound concentrations in a 96-well microtiter plate. For each assay, all compounds were prepared to a 50× final assay concentration (50 μM) in 100% DMSO, then diluted in a half-log series, with the final top concentration at 1 μM. This working stock of the compound was added to the assay well as the first component in the reaction, followed by the remaining components as detailed in the following assay protocols below. The positive control wells (100% kinase activity) contain all components of the reaction including 2% DMSO (control for solvent effects), except the compound of interest. Blank wells contain all components of the reaction, with the reference inhibitor, staurosporine. This reference compound was used to abolish kinase activity and generated the 0% kinase activity base-line. IC50 values were calculated by nonlinear regression analysis using the sigmoidal dose-response (variable slope) curve fit on XLFit version 5.3 (ID Business Solutions).
Human Axl (residues H473-A894 with Q764R, 161 nM) was incubated with 8 mM MOPS pH 7.0, 0.2 mM EDTA, 250 μM KKSRGDYMTMQIG (SEQ ID NO. 43), 10 mM magnesium acetate and 10 μM [γ-33P-ATP]. The reaction was initiated by the addition of the Mg/ATP mix. After incubation for 40 minutes at room temperature, the reaction was stopped by the addition of phosphoric acid to a concentration of 0.5%. A reaction aliquot of 10 μL was then spotted onto a P30 filtermat and washed four times for 4 minutes in 0.425% phosphoric acid and once in methanol prior to drying and scintillation counting. Incorporated ^33P was measured using the Wallac Microbeta scintillation counter (Perkin Elmer).

Experiment [2] has as its target Mer (Homo sapiens (Human), UniProt Q12866). Briefly: Human Mer kinase assay (33P radiometric, KinaseProfiler). The experiment is classed as biochemical. To be noted: 10 μM ATP. How it is done: as §1
Human Mer (residues R557-E882 with H628Q and R794A, 0.7 nM) was incubated with 8 mM MOPS pH 7.0, 0.2 mM EDTA, 30 mM NaCl, 250 μM GGMEDIYFEFMGGKKK (SEQ ID NO. 44), 10 mM magnesium acetate, and 10 μM [γ-^33P-ATP]. The reaction was initiated by the addition of the Mg/ATP mix. After incubation for 40 minutes at room temperature, the reaction was stopped by the addition of phosphoric acid to a concentration of 0.5%. A reaction aliquot of 10 μL was then spotted onto a P30 filtermat and washed four times for 4 minutes in 0.425% phosphoric acid and once in methanol prior to drying and scintillation counting. Incorporated ^33P was measured using the Wallac Microbeta scintillation counter (Perkin Elmer).

The target in experiment [3] is Met (Homo sapiens (Human), UniProt P08581). Briefly: Human Met kinase assay (33P radiometric, KinaseProfiler). The experiment is classed as biochemical. To be noted: 10 μM ATP, read-out: c-Met IC50. As for the experimental part: as §1
Human Met (residues R974-S1390 with A1209G and V1290L, 3.4 nM) was incubated with 8 mM MOPS pH 7.0, 0.2 mM EDTA, 250 μM KKKGQEEEYVFIE (SEQ ID NO. 45), 1 mM sodium orthovanadate, 5 mM […], 10 mM magnesium acetate, and 10 μM [γ-33P-ATP]. The reaction was initiated by the addition of the Mg/ATP mix. After incubation for 40 minutes at room temperature, the reaction was stopped by the addition of phosphoric acid to a concentration of 0.5%. A reaction aliquot of 10 μL was then spotted onto a P30 filtermat and washed four times for 4 minutes in 0.425% phosphoric acid and once in methanol prior to drying and scintillation counting. Incorporated 33P was measured using the Wallac Microbeta scintillation counter (Perkin Elmer).

Experiment [4] addresses AXL (Homo sapiens (Human), UniProt P30530). Briefly: AXL autophosphorylation ELISA in A-172 cells. The experiment is classed as cell-based. Conditions: cellular, Gas6-stimulated, phospho-AXL ELISA. Summed up:
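A-172 glioblastoma cells, serum-starved 24 h, took compounds for 1 h (8-point curve, 0.3% DMSO) before 15 min stimulation with 1 μg/mL recombinant human Gas6. Lysate phospho-AXL measured by ELISA against a phospho-AXL standard, normalized to DMSO (100%) and reference inhibitor (0%); IC50 from 4-parameter logistic fit.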
(An ELISA detects its analyte on a solid surface through an enzyme-linked reagent.)

The target of experiment [5] is KDR (Homo sapiens (Human), UniProt P35968). The experiment is described as follows: KDR autophosphorylation ELISA in HUVEC cells. The experiment is classed as cell-based. To be noted: cellular, VEGF165-stimulated, phospho-KDR ELISA. Summed up:
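Compound pretreatment (1 h, 0.3% DMSO) of serum-starved HUVEC preceded a 5 min pulse of 100 ng/mL VEGF165, after which cells were lysed. Phospho-KDR was quantified by ELISA relative to stimulated and unstimulated controls.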

Human Axl, sequence (P30530 473-894 Q764R): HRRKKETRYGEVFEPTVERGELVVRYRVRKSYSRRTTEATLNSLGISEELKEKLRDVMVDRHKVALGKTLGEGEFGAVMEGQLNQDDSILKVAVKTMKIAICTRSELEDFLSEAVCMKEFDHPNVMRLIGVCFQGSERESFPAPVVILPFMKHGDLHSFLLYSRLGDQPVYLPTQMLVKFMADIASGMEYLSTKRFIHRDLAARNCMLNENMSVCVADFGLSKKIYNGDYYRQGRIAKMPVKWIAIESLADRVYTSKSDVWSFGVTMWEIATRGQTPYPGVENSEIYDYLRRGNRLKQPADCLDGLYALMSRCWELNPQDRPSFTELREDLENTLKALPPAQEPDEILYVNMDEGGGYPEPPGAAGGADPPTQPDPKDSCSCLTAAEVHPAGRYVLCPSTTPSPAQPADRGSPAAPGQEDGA
Mer, sequence (Q12866 557-882): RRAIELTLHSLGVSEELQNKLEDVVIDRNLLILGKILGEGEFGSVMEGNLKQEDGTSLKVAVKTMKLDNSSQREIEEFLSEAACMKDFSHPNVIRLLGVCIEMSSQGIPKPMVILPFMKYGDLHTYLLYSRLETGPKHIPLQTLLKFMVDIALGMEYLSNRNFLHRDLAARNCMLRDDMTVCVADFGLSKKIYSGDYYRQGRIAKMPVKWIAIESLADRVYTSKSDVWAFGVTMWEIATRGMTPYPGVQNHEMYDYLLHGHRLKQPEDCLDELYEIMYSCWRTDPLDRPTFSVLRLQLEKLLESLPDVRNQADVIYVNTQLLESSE
AXL, sequence (P30530 26-894): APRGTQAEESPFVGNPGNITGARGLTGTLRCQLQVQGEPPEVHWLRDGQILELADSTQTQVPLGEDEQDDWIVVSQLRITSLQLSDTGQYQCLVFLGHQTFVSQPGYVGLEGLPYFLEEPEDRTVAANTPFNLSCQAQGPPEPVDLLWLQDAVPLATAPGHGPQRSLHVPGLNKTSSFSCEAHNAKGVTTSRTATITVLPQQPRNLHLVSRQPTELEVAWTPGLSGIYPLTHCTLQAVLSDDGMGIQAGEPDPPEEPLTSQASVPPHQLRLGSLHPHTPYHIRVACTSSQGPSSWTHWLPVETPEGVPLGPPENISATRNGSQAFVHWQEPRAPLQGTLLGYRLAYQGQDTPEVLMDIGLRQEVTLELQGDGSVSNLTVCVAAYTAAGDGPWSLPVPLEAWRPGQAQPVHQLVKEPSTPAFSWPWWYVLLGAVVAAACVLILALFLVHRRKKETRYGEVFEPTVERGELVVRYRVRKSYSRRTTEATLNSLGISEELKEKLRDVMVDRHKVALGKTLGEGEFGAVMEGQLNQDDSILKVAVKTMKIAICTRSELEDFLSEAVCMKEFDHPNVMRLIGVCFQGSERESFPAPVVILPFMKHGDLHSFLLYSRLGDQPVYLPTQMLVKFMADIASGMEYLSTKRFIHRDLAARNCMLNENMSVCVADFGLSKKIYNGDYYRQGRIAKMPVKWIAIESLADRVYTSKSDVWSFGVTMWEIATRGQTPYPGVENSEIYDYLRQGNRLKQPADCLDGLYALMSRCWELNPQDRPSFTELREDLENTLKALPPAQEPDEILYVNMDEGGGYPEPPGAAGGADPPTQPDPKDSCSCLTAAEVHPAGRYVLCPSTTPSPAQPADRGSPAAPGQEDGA
KDR, sequence (P35968 20-1356): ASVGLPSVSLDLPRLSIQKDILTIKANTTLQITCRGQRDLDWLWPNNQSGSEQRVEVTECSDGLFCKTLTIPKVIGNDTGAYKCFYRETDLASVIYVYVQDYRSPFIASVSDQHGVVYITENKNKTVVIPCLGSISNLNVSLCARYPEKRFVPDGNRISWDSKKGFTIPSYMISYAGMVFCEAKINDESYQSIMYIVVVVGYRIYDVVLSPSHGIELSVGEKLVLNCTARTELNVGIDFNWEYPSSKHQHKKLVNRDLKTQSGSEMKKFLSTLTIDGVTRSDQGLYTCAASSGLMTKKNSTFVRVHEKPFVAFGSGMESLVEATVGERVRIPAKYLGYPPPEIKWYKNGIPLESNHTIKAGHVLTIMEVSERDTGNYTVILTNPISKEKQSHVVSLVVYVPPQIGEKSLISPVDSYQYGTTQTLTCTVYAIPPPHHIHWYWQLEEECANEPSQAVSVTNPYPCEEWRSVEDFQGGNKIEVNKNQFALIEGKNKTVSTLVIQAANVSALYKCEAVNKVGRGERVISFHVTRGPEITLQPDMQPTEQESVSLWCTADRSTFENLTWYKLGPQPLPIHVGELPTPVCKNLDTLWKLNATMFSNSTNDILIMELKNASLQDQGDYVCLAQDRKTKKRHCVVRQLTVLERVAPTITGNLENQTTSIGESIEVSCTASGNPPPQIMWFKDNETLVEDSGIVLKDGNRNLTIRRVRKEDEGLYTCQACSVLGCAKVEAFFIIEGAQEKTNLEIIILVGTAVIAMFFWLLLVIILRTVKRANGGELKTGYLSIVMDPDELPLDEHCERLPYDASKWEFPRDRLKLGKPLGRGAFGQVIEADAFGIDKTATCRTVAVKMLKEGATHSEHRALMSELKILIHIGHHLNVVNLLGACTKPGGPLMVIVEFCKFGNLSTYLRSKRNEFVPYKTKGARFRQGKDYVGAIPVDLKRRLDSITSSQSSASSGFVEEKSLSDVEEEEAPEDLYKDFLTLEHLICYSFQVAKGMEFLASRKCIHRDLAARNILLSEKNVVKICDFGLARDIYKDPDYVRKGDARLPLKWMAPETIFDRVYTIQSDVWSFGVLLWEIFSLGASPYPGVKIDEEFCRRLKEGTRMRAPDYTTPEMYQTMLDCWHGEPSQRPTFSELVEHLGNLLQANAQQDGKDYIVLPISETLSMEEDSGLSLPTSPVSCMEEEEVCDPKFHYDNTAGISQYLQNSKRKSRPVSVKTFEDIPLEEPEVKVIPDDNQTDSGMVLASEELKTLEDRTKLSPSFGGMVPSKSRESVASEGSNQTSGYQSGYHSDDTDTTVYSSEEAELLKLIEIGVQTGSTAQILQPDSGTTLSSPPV

One may read the IC50 as the concentration needed to halve the response being measured. As for `COc1cc2nccc(Oc3ccc(NC(=O)C4(C(=O)Nc5ccc(F)cc5)CC4)cn3)c2cc1C(=O)O` [Compound 13, 4-[5-[[1-[(4-Fluorophenyl)carbamoyl]cyclopropanecarbonyl]-amino]pyridin-2-yl]oxy-7-methoxyquinoline-6-carboxylic acid], the IC50 in experiment [1], in experiment [2] and in experiment [3] was 100 to 1000 nM each time.
Regarding `COc1cc2nccc(Oc3ncc(NC(=O)C4(C(=O)Nc5ccc(F)cc5)CC4)cc3Cl)c2cc1C(=O)O` [Compound 14, 4-[3-Chloro-5-[[1-[(4-fluorophenyl)carbamoyl]cyclopropanecarbonyl]amino]pyridin-2-yl]oxy-7-methoxyquinoline-6-carboxylic acid], the IC50 is 100 to 1000 nM in experiment [1]; 100 to 1000 nM in experiment [2]; 10 to 100 nM in experiment [3]; above 300 nM in experiment [4]; above 300 nM in experiment [5].

The record behind these values is patent US11673897B2, “Compounds for the treatment of kinase-dependent disorders” (Exelixis, Inc., priority 2018, dated 2023).
